Experimental data taken from PubChem BioAssay (NCI).
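GI50 marks 50% less growth. TGI: total growth inhibition.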

Tests used:
Assay in all cases: NCI anticancer screen, dose series, 384-well format
SK-MEL-5 melanoma = system: SK-MEL-5 melanoma
PC-3 prostate = system: PC-3 prostate
NCI/ADR-RES ovarian = system: NCI/ADR-RES ovarian
HS 578T breast = system: HS 578T breast
RPMI-8226 leukemia = system: RPMI-8226 leukemia
CCRF-CEM leukemia = system: CCRF-CEM leukemia
SR leukemia = system: SR leukemia
SNB-19 CNS = system: SNB-19 CNS
MDA-MB-231 breast = system: MDA-MB-231 breast
COLO 205 colon = system: COLO 205 colon
786-0 renal = system: 786-0 renal
NCI-H522 lung = system: NCI-H522 lung
MDA-MB-435 melanoma = system: MDA-MB-435 melanoma
TK-10 renal = system: TK-10 renal
OVCAR-4 ovarian = system: OVCAR-4 ovarian
CAKI-1 renal = system: CAKI-1 renal
HCT-15 colon = system: HCT-15 colon
RXF 393 renal = system: RXF 393 renal
A549 NSCLC = system: A549 NSCLC
HOP-62 NSCLC = system: HOP-62 NSCLC
OVCAR-3 ovarian = system: OVCAR-3 ovarian
HCC-2998 colon = system: HCC-2998 colon
SN12C renal = system: SN12C renal
LOX IMVI melanoma = system: LOX IMVI melanoma
MDA-MB-468 breast = system: MDA-MB-468 breast
SK-MEL-28 melanoma = system: SK-MEL-28 melanoma
SK-OV-3 ovarian = system: SK-OV-3 ovarian
NCI-H460 NSCLC = system: NCI-H460 NSCLC
OVCAR-5 ovarian = system: OVCAR-5 ovarian

O=C(Nc1ccc(OC(F)(F)F)cc1)c1sccc1NCc1ccnc2ccccc12
GI50 (SK-MEL-5 melanoma): 1.66 µM
TGI (SK-MEL-5 melanoma): 3.41 µM
GI50 (PC-3 prostate): 4.56 µM
TGI (PC-3 prostate): 25.7 µM
GI50 (NCI/ADR-RES ovarian): 2.8 µM
TGI (NCI/ADR-RES ovarian): 8.9 µM
GI50 (HS 578T breast): 2.66 µM
TGI (HS 578T breast): 8.81 µM
GI50 (RPMI-8226 leukemia): 2.06 µM
TGI (RPMI-8226 leukemia): 4.59 µM
GI50 (CCRF-CEM leukemia): 2.03 µM
TGI (CCRF-CEM leukemia): 4.44 µM
GI50 (SR leukemia): 1.81 µM
TGI (SR leukemia): 4.06 µM
GI50 (SNB-19 CNS): 11.9 µM
TGI (SNB-19 CNS): > 100 µM
GI50 (MDA-MB-231 breast): 1.9 µM
TGI (MDA-MB-231 breast): 15.2 µM
GI50 (COLO 205 colon): 4.4 µM
TGI (COLO 205 colon): 22.8 µM
GI50 (786-0 renal): 4.38 µM
TGI (786-0 renal): 15.6 µM
GI50 (NCI-H522 lung): 2.96 µM
TGI (NCI-H522 lung): 11.6 µM
GI50 (MDA-MB-435 melanoma): 4.65 µM
TGI (MDA-MB-435 melanoma): 21.7 µM
GI50 (TK-10 renal): 11 µM
TGI (TK-10 renal): 65 µM
GI50 (OVCAR-4 ovarian): 4.43 µM
TGI (OVCAR-4 ovarian): 19.6 µM
GI50 (CAKI-1 renal): 3.2 µM
TGI (CAKI-1 renal): 14.8 µM
GI50 (HCT-15 colon): 3.55 µM
TGI (HCT-15 colon): 10.9 µM
GI50 (RXF 393 renal): 2.97 µM
TGI (RXF 393 renal): 14.3 µM
GI50 (A549 NSCLC): 4.5 µM
TGI (A549 NSCLC): 52.5 µM
GI50 (HOP-62 NSCLC): 8.26 µM
TGI (HOP-62 NSCLC): 71.6 µM
GI50 (OVCAR-3 ovarian): 5.25 µM
TGI (OVCAR-3 ovarian): 19.6 µM
GI50 (HCC-2998 colon): 4.65 µM
TGI (HCC-2998 colon): 12 µM
GI50 (SN12C renal): 3.82 µM
TGI (SN12C renal): 24.8 µM
GI50 (LOX IMVI melanoma): 3.48 µM
TGI (LOX IMVI melanoma): 10.6 µM
GI50 (MDA-MB-468 breast): 2.06 µM
TGI (MDA-MB-468 breast): 5.16 µM
GI50 (SK-MEL-28 melanoma): 5.71 µM
TGI (SK-MEL-28 melanoma): 35.2 µM
GI50 (SK-OV-3 ovarian): 2.97 µM
TGI (SK-OV-3 ovarian): 9.49 µM
GI50 (NCI-H460 NSCLC): 2.93 µM
TGI (NCI-H460 NSCLC): 10.6 µM
GI50 (OVCAR-5 ovarian): 8.44 µM
TGI (OVCAR-5 ovarian): 43.8 µM
